# Molecular target: T1, wild-type human cardiac sodium channel, hNav1.5 (late sodium current) (Homo sapiens, UniProt Q14524)
# T1 construct: host or cells: HEK293
# Assay: Late INa screening assay (PatchXpress whole cell patch clamp)
# Type: cell-based
# Conditions: 10 μM test compound; HEK293 hNav1.5; late INa generated with 10 μM Tefluthrin (some experiments 50 nM ATX II); read-out: Late INa % blk (10 μM test cmpd)
# Description: The late sodium current (Late INa) and peak sodium current (Peak INa) assays are performed on an automated electrophysiology platform, PatchXpress 7000A (MDS Analytical Technologies, Sunnyvale, Calif.), which uses the whole cell patch clamp technique to measure currents through the cell membrane of up to 16 cells at a time. The assay uses an HEK293 (human embryonic kidney) cell line heterologously expressing the wild-type human cardiac sodium channel, hNav1.5, purchased from Millipore (Billerica, Mass.). No beta subunits were coexpressed with the Na channel alpha subunit. Cells are maintained with standard tissue culture procedures and stable channel expression is maintained with 400 μg/ml Geneticin in the culture medium. […] Experiments are carried out at 24-27° C.
# For both the Late INa and Peak INa assays, series resistance compensation is set to 50% and whole-cell compensation is performed automatically. […] Currents through open sodium channels are automatically recorded and stored in the DataXpress2 database (MDS Analytical Technologies, Sunnyvale, Calif.). Analysis is performed using DataXpress2 analysis software and data are compiled in Excel.
# Compound stocks are routinely made in glass vials to 10 mM in dimethyl sulfoxide (DMSO). In some cases, when compounds are not soluble in DMSO, they are made in 100% ethanol. Stocks are sonicated as necessary. The extracellular solution for screening Late INa is composed of: 140 mM NaCl, 4 mM KCl, 1.8 mM CaCl2, 0.75 mM MgCl2, and 5 mM HEPES with pH adjusted to 7.4 using NaOH. The extracellular solution for screening Peak INa is composed of: 20 mM NaCl, 120 mM N-methyl-D glucamine, 4 mM KCl, 1.8 mM CaCl2, 0.75 mM MgCl2, and 5 mM HEPES with pH adjusted to 7.4 using HCl. The intracellular solution used to perfuse the inside of the cells for both the Late INa and Peak INa assays contains: 120 mM CsF, 20 mM CsCl, 5 mM EGTA, 5 mM HEPES and pH adjusted to 7.4 with CsOH. […] The 0Na extracellular solution used at the end of each experiment for the Late INa and Peak INa assays to measure baseline current contains: 140 mM N-methyl-D-glucamine; 4 mM KCl; 1.8 mM CaCl2; 0.75 mM MgCl2; 5 mM HEPES and pH was adjusted to 7.4 with HCl.
# For the Late INa assay, sodium channels are activated every 10 seconds (0.1 Hz) by depolarizing the cell membrane to −20 mV for 250 milliseconds (ms) from a holding potential of −120 mV. In response to a −20 mV voltage step, typical Nav1.5 sodium currents activate rapidly to a peak negative current and then inactivate nearly completely within […].
# All compounds are tested to determine their activity in blocking the late sodium current. Late INa current is generated by adding 10 μM Tefluthrin (pyrethroid) to the extracellular solution while recording Na currents For some experiments, 50 nM ATX II (sea anemone toxin), another late Na activator, was used to generate the late component. […] After establishing the whole cell recording configuration, late INa activators are added to each well 4 times over a 16-17 minute period so that the late component of the Na current reaches a stable value. […] Measurements are made at the end of exposure to the third compound addition and values are normalized to the current level when all Na^+ is removed from the extracellular solution after two additions of ONa-ECF. Results are reported as percent block of late INa
# T1 sequence (Q14524 whole entry): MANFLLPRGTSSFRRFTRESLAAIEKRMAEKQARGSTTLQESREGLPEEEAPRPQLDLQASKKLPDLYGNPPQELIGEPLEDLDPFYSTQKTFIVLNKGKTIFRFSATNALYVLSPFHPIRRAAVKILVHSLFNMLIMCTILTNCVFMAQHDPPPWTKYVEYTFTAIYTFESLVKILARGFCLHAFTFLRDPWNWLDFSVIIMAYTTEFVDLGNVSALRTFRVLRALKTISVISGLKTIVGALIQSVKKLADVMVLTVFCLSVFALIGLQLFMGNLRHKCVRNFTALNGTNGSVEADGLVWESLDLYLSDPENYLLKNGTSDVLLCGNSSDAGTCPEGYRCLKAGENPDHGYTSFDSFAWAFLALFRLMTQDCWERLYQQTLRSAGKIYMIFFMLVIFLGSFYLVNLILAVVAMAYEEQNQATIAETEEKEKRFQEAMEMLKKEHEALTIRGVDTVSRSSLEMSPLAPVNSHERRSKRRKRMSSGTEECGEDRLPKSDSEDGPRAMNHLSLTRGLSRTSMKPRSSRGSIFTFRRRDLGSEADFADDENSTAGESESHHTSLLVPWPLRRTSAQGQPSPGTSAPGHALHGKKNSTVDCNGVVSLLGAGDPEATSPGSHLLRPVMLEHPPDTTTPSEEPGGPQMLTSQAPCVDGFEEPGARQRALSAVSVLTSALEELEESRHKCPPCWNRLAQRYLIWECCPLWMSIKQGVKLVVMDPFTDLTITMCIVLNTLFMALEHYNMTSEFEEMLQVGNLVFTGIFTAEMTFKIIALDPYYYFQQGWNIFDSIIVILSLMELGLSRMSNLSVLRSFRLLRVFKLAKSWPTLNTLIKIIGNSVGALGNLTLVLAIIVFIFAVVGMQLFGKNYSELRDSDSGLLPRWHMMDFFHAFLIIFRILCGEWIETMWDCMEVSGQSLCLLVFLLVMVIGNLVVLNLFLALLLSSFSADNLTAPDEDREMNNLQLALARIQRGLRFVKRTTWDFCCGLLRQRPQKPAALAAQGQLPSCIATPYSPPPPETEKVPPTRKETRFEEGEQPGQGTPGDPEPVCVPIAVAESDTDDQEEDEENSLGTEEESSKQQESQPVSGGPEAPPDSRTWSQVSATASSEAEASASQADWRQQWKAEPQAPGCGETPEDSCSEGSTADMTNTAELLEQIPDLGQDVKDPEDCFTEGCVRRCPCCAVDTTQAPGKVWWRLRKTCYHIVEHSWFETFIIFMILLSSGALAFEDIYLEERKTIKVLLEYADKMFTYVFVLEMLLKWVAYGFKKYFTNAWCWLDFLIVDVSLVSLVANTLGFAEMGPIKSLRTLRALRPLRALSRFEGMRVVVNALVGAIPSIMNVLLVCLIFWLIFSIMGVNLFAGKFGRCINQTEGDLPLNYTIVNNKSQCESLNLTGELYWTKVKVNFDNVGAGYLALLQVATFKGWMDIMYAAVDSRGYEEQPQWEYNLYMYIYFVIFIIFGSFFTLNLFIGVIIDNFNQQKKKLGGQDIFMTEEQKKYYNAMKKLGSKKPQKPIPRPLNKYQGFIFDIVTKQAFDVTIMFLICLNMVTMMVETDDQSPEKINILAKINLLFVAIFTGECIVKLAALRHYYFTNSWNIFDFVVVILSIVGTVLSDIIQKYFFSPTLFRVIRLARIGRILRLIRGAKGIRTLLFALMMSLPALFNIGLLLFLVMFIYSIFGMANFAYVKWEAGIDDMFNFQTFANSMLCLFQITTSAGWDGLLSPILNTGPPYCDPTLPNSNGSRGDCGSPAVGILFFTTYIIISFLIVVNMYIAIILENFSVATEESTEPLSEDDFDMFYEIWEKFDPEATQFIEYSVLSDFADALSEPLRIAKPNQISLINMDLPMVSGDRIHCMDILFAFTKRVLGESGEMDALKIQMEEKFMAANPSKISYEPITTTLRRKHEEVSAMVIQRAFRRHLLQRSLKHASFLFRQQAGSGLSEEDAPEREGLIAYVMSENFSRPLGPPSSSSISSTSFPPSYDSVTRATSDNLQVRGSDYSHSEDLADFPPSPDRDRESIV
row,Compound,inhibition at 10 µM
1,"CS(=O)(=O)Nc1ccc(-c2ccc(F)cc2Cl)cc1Cl [PT-098, N-(2′,3-dichloro-4′-fluorobiphenyl-4-yl)methanesulfonamide]",36.4%
2,"CS(=O)(=O)Nc1ccc(-c2ccc(OC(F)(F)F)cc2)cc1OC(F)(F)F [PT-099, N-[3,4′-bis(trifluoromethoxy)biphenyl-4-yl]methanesulfonamide]",8.9%
3,"CS(=O)(=O)Nc1ccc(-c2cccc(OC(F)(F)F)c2)cc1OC(F)(F)F [PT-100, N-[3,3′-bis(trifluoromethoxy)biphenyl-4-yl]methanesulfonamide]",-0.7%
4,"CC(C)(C)OC(=O)CN(c1ccc(-c2cccc(OC(F)(F)F)c2)c(F)c1)S(C)(=O)=O [PT-101, tert-butyl N-[2-fluoro-3′-(trifluoromethoxy)biphenyl-4-yl]-N-(methylsulfonyl)glycinate]",72.9%
5,"CC(C)(C)OC(=O)CN(c1ccc(-c2ccc(F)c(Cl)c2)c(Cl)c1)S(C)(=O)=O [PT-102, tert-butyl N-(2,3′-dichloro-4′-fluorobiphenyl-4-yl)-N-(methylsulfonyl)glycinate]",53.6%
6,"CS(=O)(=O)N(CC(=O)O)c1ccc(-c2cccc(OC(F)(F)F)c2)c(F)c1 [PT-103, N-[2-fluoro-3′-(trifluoromethoxy)biphenyl-4-yl]-N-(methylsulfonyl)glycine]",21.2%
7,"CS(=O)(=O)N(CC(=O)O)c1ccc(-c2ccc(F)c(Cl)c2)c(Cl)c1 [PT-104, N-(2,3′-dichloro-4′-fluorobiphenyl-4-yl)-N-(methylsulfonyl)glycine]",14.2%
8,"Cc1cc(N([C@@H](C)C(=O)O)S(C)(=O)=O)ccc1-c1ccc(Oc2ccccc2)cc1 [PT-105, N-(2-methyl-4′-phenoxybiphenyl-4-yl)-N-(methylsulfonyl)alanine]",5.8%
9,"Cc1cc(-c2ccc(Oc3ccccc3)cc2)c(Cl)cc1N(CC(=O)O)S(C)(=O)=O [PT-106, N-(2-chloro-5-methyl-4′-phenoxybiphenyl-4-yl)-N-(methylsulfonyl)glycine]",42%
10,"Cc1cc(N(Cc2ccc(C(=O)OC(C)(C)C)cc2)S(C)(=O)=O)ccc1-c1ccc(Oc2ccccc2)cc1 [PT-107, tert-butyl 4-{[(2-methyl-4′-phenoxybiphenyl-4-yl)(methylsulfonyl)amino]methyl}benzoate]",21.2%
11,"COc1ccc(NS(C)(=O)=O)cc1-c1cccc(OC(F)(F)F)c1 [PT-109, N-[6-methoxy-3′-(trifluoromethoxy)biphenyl-3-yl]methanesulfonamide]",35.1%
12,"COc1ccc(NS(C)(=O)=O)cc1-c1ccc(Cl)c(F)c1 [PT-110, N-(4′-chloro-3′-fluoro-6-methoxybiphenyl-3-yl)methanesulfonamide]",39.9%
13,"CS(=O)(=O)N(CC(=O)O)c1ccc(-c2ccc(C(F)(F)F)cc2)c(Cl)c1 [PT-111, N-[2-chloro-4′-(trifluoromethyl)biphenyl-4-yl]-N-(methylsulfonyl)glycine]",14.6%
14,"Cc1cc(-c2ccc(Oc3ccccc3)cc2)c(Cl)cc1N(Cc1ccc(C(=O)O)cc1)S(C)(=O)=O [PT-113, 4-{[(2-chloro-5-methyl-4′-phenoxybiphenyl-4-yl)(methylsulfonyl)amino]methyl}benzoic acid]",34%
15,"O=S(=O)(Nc1ccc(-c2ccc(Oc3ccccc3)cc2)cc1OC(F)(F)F)C1CC1 [PT-114, N-[4′-phenoxy-3-(trifluoromethoxy)biphenyl-4-yl]cyclopropanesulfonamide]",14.1%
16,"N#Cc1cc(-c2ccc(Oc3ccccc3)cc2)ccc1NS(=O)(=O)C1CC1 [PT-115, N-(3-cyano-4′-phenoxybiphenyl-4-yl)cyclopropanesulfonamide]",61.8%
17,"COC(=O)c1cc(-c2ccc(Oc3ccccc3)cc2)ccc1NS(=O)(=O)C1CC1 [PT-116, methyl 4-[(cyclopropylsulfonyl)amino]-4′-phenoxybiphenyl-3-carboxylate]",11.2%

row,Compound,inhibition at 10 µM
1,"O=C(O)c1cc(-c2ccc(Oc3ccccc3)cc2)ccc1NS(=O)(=O)C1CC1 [PT-117, 4-[(cyclopropylsulfonyl)amino]-4′-phenoxybiphenyl-3-carboxylic acid]",40.7%
2,"COC(=O)c1cc(-c2ccc(Oc3ccccc3)cc2)ccc1NS(C)(=O)=O [PT-118, methyl 4-[(methylsulfonyl)amino]-4′-phenoxybiphenyl-3-carboxylate]",40.8%
3,"CS(=O)(=O)Nc1ccc(-c2ccc(Oc3ccccc3)cc2)cc1OC(F)(F)F [PT-119, N-[4′-phenoxy-3-(trifluoromethoxy)biphenyl-4-yl]methanesulfonamide]",6.6%
4,"CS(=O)(=O)Nc1ccc(-c2ccc(Oc3ccccc3)cc2)cc1C(=O)O [PT-120, 4-[(methylsulfonyl)amino]-4′-phenoxybiphenyl-3-carboxylic acid]",27%
5,"COC(=O)c1cc(-c2ccc(C(F)(F)F)cc2)ccc1NS(C)(=O)=O [PT-121, methyl 4-[(methylsulfonyl)amino]-4′-(trifluoromethyl)biphenyl-3-carboxylate]",40.5%
6,"CS(=O)(=O)Nc1ccc(-c2ccc(C(F)(F)F)cc2)cc1C(=O)O [PT-122, 4-[(methylsulfonyl)amino]-4′-(trifluoromethyl)biphenyl-3-carboxylic acid]",25.4%
7,"N#Cc1cc(NS(=O)(=O)C2CC2)ccc1-c1ccc(Oc2ccccc2)cc1 [PT-124, N-(2-cyano-4′-phenoxybiphenyl-4-yl)cyclopropanesulfonamide]",32.2%
8,"COc1cccc(S(=O)(=O)Nc2cccc(-c3ccc(Cl)cc3)c2)c1 [PT-127, N-(4′-chlorobiphenyl-3-yl)-3-methoxybenzenesulfonamide]",25%
9,"CC(C)(C)OC(=O)CN(c1ccc(-c2ccc(C(F)(F)F)cc2)c(Cl)c1)S(C)(=O)=O [PT-128, tert-butyl 2-(N-(2-chloro-4′-(trifluoromethyl)biphenyl-4-yl)methylsulfonamido)acetate]",25.7%
10,"C#Cc1cc(NS(C)(=O)=O)ccc1-c1ccc(Oc2ccccc2)cc1 [PT-129, N-(2-ethynyl-4′-phenoxybiphenyl-4-yl)methanesulfonamide]",44.4%
11,"N#Cc1cc(NS(=O)(=O)C2CC2)ccc1-c1ccc(C(F)(F)F)cc1 [PT-130, N-(2-cyano-4′-(trifluoromethyl)biphenyl-4-yl)cyclopropanesulfonamide]",26%
12,"CS(=O)(=O)Nc1cccc(-c2ccc(Oc3ccc(C(=O)O)cc3)cc2)c1 [PT-131, 4-(3′-(methylsulfonamido)biphenyl-4-yloxy)benzoic acid]",20.8%
13,"CS(=O)(=O)Nc1cccc(-c2ccc(C(F)(F)F)c(F)c2)c1 [PT-132, N-(3′-fluoro-4′-(trifluoromethyl)biphenyl-3-yl)methanesulfonamide]",65.9%
14,"Cc1cc(N(Cc2ccc(CC(=O)O)cc2)S(=O)(=O)C2CC2)ccc1-c1ccc(Oc2ccccc2)cc1 [PT-133, 2-(4-((N-(2-methyl-4′-phenoxybiphenyl-4-yl)cyclopropanesulfonamido)methyl)phenyl)acetic acid]",34.1%
15,"COc1cc(N(Cc2ccc(C(=O)O)cc2)S(C)(=O)=O)ccc1-c1ccc(Oc2ccccc2)cc1 [PT-134, 4-((N-(2-methoxy-4′-phenoxybiphenyl-4-yl)methylsulfonamido)methyl)benzoic acid]",3.9%
16,"CS(=O)(=O)N(Cc1ccc(-c2nnn[nH]2)cc1)c1ccc(-c2ccc(Oc3ccccc3)cc2)c(Cl)c1 [PT-135, N-(4-(1H-tetrazol-5-yl)benzyl)-N-(2-chloro-4′-phenoxybiphenyl-4-yl)methanesulfonamide]",9.7%

# From US8389500B2, “Fused heterocyclic compounds as ion channel modulators” (Gilead Sciences, Inc., priority 2008, dated 2013)
